Source: US20130280741A1, “METHOD AND SYSTEM OF DETECTING DIOXIN-LIKE COMPOUNDS” (priority 2012, published 2013)

What was measured:
AHR-RL and ARNT-YFP = biological target: T1, AHR-RL and ARNT-YFP (Homo sapiens, UniProt P35869); assay: BRET assay in AAPA cells; type: cell-based
T1 construct: expressed in transfected cells
Experimental: (§1) Tetracycline-regulated expression cells (T-REx™ cells) (Invitrogen, Carlsbad, Calif., USA) were transfected with AHR-RL, AIP-HIS and P23-HIS by lipofectamin 2000™ transfection reagent (Invitrogen, Carlsbad, Calif., USA) according to the manufacturer's instructions. Transfected cells were cultured in DMEM growth medium (Gibco, USA) supplemented with 10% fetal bovine serum (FBS), (Gibco, USA), 5 μg/ml Blasticidin, 250 μg/ml Zeocin and 500 μg/ml G418. The optimal cell lines were then transfected with ARNT-YFP or HSP90-YFP and selected with 200 μg/ml Hygromycin to obtain a stable cell line transfected with ARNT-YFP (called as “AAPA cells”) and obtain a stable cell line transfected with HSP90-YFP (called as “AAPH cells”).
For the inducible protein expression and AHR complex formation, the AAPA cells, which were stably co-transfected with AHR-RL, AIP-HIS, P23-HIS and ARNT-YFP, were prepared following the method as described in Example 2 and then were treated with 1 μg/ml tetracycline for 48 hours. Then, the treated cells were washed by phosphate-buffered saline (PBS) twice.
For dioxin detection, different concentrations of 3-methylcholanthrene (3MC) (Boehringer Mannheim, Mannheim, Germany) were mixed with the cells and cultured in a 96-well white polystyrene plate (Corning, USA) at 37° C. for 1 hour. The BRET signals were determined by addition of coelenterazine, a substrate of Renilla Luciferase, to a final concentration of […].

AHR-RL and HSP90-YFP = biological target: T2, AHR-RL and HSP90-YFP (Homo sapiens, UniProt P35869); assay: BRET assay in AAPH cells; type: cell-based; settings: different concentrations, 37° C., dose-dependent (FIG. 2C)
T2 construct: expressed in transfected cells
Experimental: as §1
On the other hand, the AAPH cells, which were stably co-transfected with AHR-RL, AIP-HIS, P23-HIS and HSP-90YFP, were prepared and then mixed with different concentrations of 3MC and cultured in a 96-well white polystyrene plate (Corning, USA) at 37° C.

AHR-RL = biological target: T3, AHR-RL (Homo sapiens, UniProt P35869); assay: Renilla luciferase signal of AHR-RL in cell-free AAPA whole cell lysate; type: biochemical; settings: for detection limits / Renilla luciferase signals in the cell-free system: AAPA cell free lysate, 37° C.; for Renilla luciferase signals in the cell-free system: dose-dependent (FIGS. 4 and 5); for lowest concentration at which AHR-RL signal degradation can be detected: cell-free system
T3 construct: expressed in transfected cells; host or cells: sonicated, cleared lysate of tetracycline-induced AAPA cells (T-REx cells, Invitrogen)
Experimental: 5×10^6 AAPA cells obtained in Example 4 were cultured in a 15 cm dish containing 25 ml DMEM medium supplemented with 10% FBS and 3.5 μg/ml tetracycline for 24 hrs. The cells were harvested and re-suspended in 10 ml cold PBS. The cells were lysed by sonication on ice using sonicator (Branson, Danbury Conn., USA) at amplitude of 10% for 30 cycles of 5 sec on and 15 sec off. The cellular debris was removed by centrifugation at 1,000 g for 10 min. For detection, 90 μl cell free lysates and different concentrations of 3MC were mixed and cultured in 96 well white polystyrene plate (Corning, USA) at room temperature. Renilla luciferase signals were determined by addition of coelenterazine to a final concentration of 0.35 μM. The result for detecting TCDD was shown in FIG. 3 (y=136.97x+2251.9, R^2=0.9794).
In addition, the cell free lysates and different concentrations of 3MC and TCDD were mixed and cultured in 96 well white polystyrene plate (Costar) at 37° C., respectively.

T1 sequence (P35869 11-848): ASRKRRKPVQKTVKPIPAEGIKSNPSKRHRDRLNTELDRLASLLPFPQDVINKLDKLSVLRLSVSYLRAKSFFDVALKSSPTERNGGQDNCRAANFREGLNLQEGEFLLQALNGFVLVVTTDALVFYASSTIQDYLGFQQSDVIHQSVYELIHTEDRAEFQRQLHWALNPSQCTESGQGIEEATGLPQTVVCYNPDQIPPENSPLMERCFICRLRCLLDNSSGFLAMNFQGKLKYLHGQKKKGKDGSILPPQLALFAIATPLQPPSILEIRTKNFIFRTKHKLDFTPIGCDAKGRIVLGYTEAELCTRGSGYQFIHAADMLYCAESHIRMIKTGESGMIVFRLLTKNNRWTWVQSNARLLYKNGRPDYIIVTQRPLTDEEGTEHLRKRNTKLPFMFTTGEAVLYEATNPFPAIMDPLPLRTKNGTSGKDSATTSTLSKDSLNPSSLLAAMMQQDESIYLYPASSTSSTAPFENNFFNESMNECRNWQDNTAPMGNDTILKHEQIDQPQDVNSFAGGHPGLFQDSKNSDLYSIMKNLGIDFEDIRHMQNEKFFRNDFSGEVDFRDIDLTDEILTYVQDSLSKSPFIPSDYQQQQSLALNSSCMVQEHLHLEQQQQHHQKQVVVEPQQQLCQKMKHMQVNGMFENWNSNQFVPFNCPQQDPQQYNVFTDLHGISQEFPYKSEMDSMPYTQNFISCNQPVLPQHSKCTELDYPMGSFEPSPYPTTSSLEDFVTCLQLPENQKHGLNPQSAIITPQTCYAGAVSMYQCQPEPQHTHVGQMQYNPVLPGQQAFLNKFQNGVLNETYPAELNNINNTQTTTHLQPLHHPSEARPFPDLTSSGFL
T1 sequence (P08238 whole entry partner): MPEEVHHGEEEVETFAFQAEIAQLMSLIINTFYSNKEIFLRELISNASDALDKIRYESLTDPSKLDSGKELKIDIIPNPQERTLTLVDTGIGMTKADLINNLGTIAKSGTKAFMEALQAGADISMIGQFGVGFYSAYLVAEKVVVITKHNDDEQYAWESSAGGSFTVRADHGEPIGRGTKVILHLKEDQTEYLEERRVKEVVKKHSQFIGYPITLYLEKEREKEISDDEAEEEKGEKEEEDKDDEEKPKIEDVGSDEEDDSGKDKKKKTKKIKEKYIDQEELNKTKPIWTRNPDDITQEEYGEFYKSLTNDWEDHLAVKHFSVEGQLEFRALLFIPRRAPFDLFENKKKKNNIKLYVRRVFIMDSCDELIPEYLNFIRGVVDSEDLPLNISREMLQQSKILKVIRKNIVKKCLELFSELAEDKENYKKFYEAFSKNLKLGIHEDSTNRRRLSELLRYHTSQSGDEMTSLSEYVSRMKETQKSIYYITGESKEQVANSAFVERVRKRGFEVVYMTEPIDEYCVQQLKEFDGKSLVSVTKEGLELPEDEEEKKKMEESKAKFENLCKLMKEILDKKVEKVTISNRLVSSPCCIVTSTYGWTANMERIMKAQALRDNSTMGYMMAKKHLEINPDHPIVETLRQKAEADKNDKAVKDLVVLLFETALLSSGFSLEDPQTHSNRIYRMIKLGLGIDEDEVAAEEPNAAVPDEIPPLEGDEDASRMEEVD
T1 sequence (O00170 whole entry partner): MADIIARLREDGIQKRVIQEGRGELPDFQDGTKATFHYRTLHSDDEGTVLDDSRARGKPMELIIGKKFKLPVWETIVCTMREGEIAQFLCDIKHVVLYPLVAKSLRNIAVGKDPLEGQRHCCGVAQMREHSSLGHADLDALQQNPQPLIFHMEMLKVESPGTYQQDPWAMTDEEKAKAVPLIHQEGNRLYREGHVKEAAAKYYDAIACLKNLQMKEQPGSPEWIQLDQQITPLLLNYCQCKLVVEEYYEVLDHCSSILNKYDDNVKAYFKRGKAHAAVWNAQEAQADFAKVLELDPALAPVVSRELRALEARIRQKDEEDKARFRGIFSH
T1 sequence (Q15185 whole entry partner): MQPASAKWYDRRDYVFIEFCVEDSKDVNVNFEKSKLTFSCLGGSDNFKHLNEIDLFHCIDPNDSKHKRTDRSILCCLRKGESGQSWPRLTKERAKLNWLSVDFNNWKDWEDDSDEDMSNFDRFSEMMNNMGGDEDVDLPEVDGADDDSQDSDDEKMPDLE
T3 sequence (P35869 11-848): as the sequence (P35869 11-848) above
T3 sequence (P08238 whole entry partner): as the sequence (P08238 whole entry partner) above
T3 sequence (O00170 whole entry partner): as the sequence (O00170 whole entry partner) above
T3 sequence (Q15185 whole entry partner): as the sequence (Q15185 whole entry partner) above
T2 sequence (P35869 11-848): as the sequence (P35869 11-848) above
T2 sequence (P08238 whole entry partner): as the sequence (P08238 whole entry partner) above
T2 sequence (O00170 whole entry partner): as the sequence (O00170 whole entry partner) above
T2 sequence (Q15185 whole entry partner): as the sequence (Q15185 whole entry partner) above

SMILES	BRET signals (AHR-RL and ARNT-YFP; AAPA cells, different concentrations, 37° C. for 1 hour, dose-dependent (FIG. 2B))	concentration at which BRET signal induction was first observed (AHR-RL and ARNT-YFP) [pM]	BRET signals (AHR-RL and HSP90-YFP)	detection limits (AHR-RL)	Renilla luciferase signals in the cell-free system (AHR-RL)	lowest concentration at which AHR-RL signal degradation can be detected (AHR-RL) [aM]
Cc1ccc2cc3c(ccc4ccccc43)c3c2c1CC3 [3MC, 3-methylcholanthrene]	increased	1	suppressed	10^−16 M	increased	10
Clc1cc2c(cc1Cl)Oc1cc(Cl)c(Cl)cc1O2 [TCDD, 2,3,7,8-tetrachlorodibenzo-p-dioxin]	–	1	–	10^−16 M	increased	10
